This note sets out measurements from US9187472B2 (AbbVie Inc., priority 2012, dated 2015).

The target in assay [1] is NAMPT (human, recombinant, C-terminally His-tagged) (Homo sapiens, UniProt P43490). The assay can be described thus: Time-Resolved Fluorescence Resonance Energy Transfer (TR-FRET) Binding Assay of NAMPT. The conditions noted are these: without substrates; 6.8 nM NAMPT, 200 nM probe, 3 hours equilibration. In short, it runs like this:
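Read-out is the time-resolved FRET ratio Em520/Em495 (excitation 337 nm) between a terbium anti-His antibody (1 nM) on the enzyme and an Oregon Green 488-labelled nicotinamide-competitive inhibitor probe (200 nM). Enzyme was 6.8 nM, DMSO 2%, pH 7.5 HEPES buffer; 3 h room-temperature equilibration preceded reading.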
On the technique in general: TR-FRET usually uses a lanthanide donor and a delayed reading to cut background.

Another assay relates to PC3 cells. Description: NAMPT Cell Proliferation Assay. Format: cell-based. The conditions noted are these: Homo sapiens, PC-3, 120 h, 5 days incubation, cell viability by Cell Titer Glo. In short, it runs like this: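 Proliferation of PC3 cells treated 5 days with a 10-fold compound series (top 10 μM) was quantified by Cell Titer Glo luminescence; IC50s were fitted from percent inhibition.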
For orientation: Cellular ATP, detected with luciferase, serves as a proxy for viable cell number.

The next assay has as its target NAMPT (Homo sapiens, UniProt P43490). Description: TR-FRET Binding Assay of NAMPT with PRPP. The following applies: with 200 μM PRPP and 2.5 mM ATP; 2 nM NAMPT, 2 nM probe, 16 hours equilibration. The method, boiled down: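 NAMPT 2 nM + probe 2 nM + Tb-anti-His Ab 1 nM; PRPP 200 μM, ATP 2.5 mM, DMSO 2%; 16 h equilibration before TR-FRET read.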

pIC50: −log10 of the molar value.

Chain of NAMPT (human, recombinant, C-terminally His-tagged) (P43490 whole entry): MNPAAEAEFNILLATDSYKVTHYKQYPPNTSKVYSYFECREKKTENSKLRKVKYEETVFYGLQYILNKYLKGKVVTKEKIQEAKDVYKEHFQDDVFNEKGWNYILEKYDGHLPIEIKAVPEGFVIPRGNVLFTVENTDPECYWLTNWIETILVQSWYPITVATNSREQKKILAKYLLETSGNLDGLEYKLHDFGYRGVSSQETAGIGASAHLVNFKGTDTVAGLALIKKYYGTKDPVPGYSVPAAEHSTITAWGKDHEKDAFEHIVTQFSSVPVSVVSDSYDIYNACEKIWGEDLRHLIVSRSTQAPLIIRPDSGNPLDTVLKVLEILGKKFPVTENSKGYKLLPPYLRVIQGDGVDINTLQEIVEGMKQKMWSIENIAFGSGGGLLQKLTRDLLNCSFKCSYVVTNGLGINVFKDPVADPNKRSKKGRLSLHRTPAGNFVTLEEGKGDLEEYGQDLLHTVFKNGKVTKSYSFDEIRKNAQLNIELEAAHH
Chain of NAMPT (P43490 whole entry): as above

Usually pIC50 stands for −log10 of the IC50, conventionally taken in molar units. Turning to `O=C(NCc1ccc2nccn2c1)c1ccc(OC2CCN(C(=O)[C@H]3CCCO3)CC2)cc1` [Example 165, N-(imidazo[1,2-a]pyridin-6-ylmethyl)-4-({1-[(2R)-tetrahydrofuran-2-ylcarbonyl]piperidin-4-yl}oxy)benzamide], the pIC50 was 5.82 in assay [1], 6.86 in the assay on PC3 cells and 8.79 at NAMPT.
With `CC(C)(O)C(=O)N1CCC(Oc2ccc(C(=O)NCc3ccc4nccn4c3)cc2)CC1` [Example 166, 4-{[1-(2-hydroxy-2-methylpropanoyl)piperidin-4-yl]oxy}-N-(imidazo[1,2-a]pyridin-6-ylmethyl)benzamide], the pIC50 in assay [1] was 5.84; in the assay on PC3 cells, 7.01; at NAMPT it was 8.74.
On the same counts, the results for `CC(C)OCC(=O)N1CCC(Oc2ccc(C(=O)NCc3ccc4nccn4c3)cc2)CC1` [Example 167, N-(imidazo[1,2-a]pyridin-6-ylmethyl)-4-({1-[(propan-2-yloxy)acetyl]piperidin-4-yl}oxy)benzamide] are 5.76, 6.98 and 8.60.
On the same counts, the results for `CCCC(=O)N1CCC(Oc2ccc(C(=O)NCc3ccc4nccn4c3)cc2)CC1` [Example 168, 4-[(1-butanoylpiperidin-4-yl)oxy]-N-(imidazo[1,2-a]pyridin-6-ylmethyl)benzamide] are 5.95, 6.68 and 9.02.
In the case of `COCC(C)C(=O)N1CCC(Oc2ccc(C(=O)NCc3ccc4nccn4c3)cc2)CC1` (stereo not drawn) [Example 169, N-(imidazo[1,2-a]pyridin-6-ylmethyl)-4-{[1-(3-methoxy-2-methylpropanoyl)piperidin-4-yl]oxy}benzamide], the values for the negative-log IC50 (pIC50) (in assay [1]; in the assay on PC3 cells; at NAMPT) were 6.43, 7.57 and 8.37, respectively.
With `O=C(NCc1ccc2nccn2c1)c1ccc(OC2CCN(C(=O)CC(F)(F)F)CC2)cc1` [Example 170, N-(imidazo[1,2-a]pyridin-6-ylmethyl)-4-{[1-(3,3,3-trifluoropropanoyl)piperidin-4-yl]oxy}benzamide], the pIC50 in assay [1] is 5.47; with PC3 cells it was 6.22; on NAMPT, 8.65.
`O=C(NCc1ccc2nccn2c1)c1ccc(OC2CCN(C(=O)CC3CCOCC3)CC2)cc1` [Example 171, N-(imidazo[1,2-a]pyridin-6-ylmethyl)-4-{[1-(tetrahydro-2H-pyran-4-ylacetyl)piperidin-4-yl]oxy}benzamide]: the negative-log IC50 (pIC50) was 5.66 in assay [1], 7.35 in the assay on PC3 cells and 8.60 on NAMPT.
On the same counts, the results for `O=C(NCc1ccc2nccn2c1)c1ccc(OC2CCN(C(=O)CC3CC3)CC2)cc1` [Example 172, 4-{[1-(cyclopropylacetyl)piperidin-4-yl]oxy}-N-(imidazo[1,2-a]pyridin-6-ylmethyl)benzamide] are 5.66, 6.65 and 8.45.
With `O=C(NCc1ccc2nccn2c1)c1ccc(OC2CCN(C(=O)CC3CCCO3)CC2)cc1` (stereo not drawn) [Example 173, N-(imidazo[1,2-a]pyridin-6-ylmethyl)-4-{[1-(tetrahydrofuran-2-ylacetyl)piperidin-4-yl]oxy}benzamide], the pIC50 in assay [1] is 5.82; in the assay on PC3 cells, 7.30; on NAMPT, 8.91.
On the same counts, the results for `CC(C)Cn1cc(-c2ccc(C(=O)NCc3ccn4ccnc4c3)s2)cn1` [Example 174, N-(imidazo[1,2-a]pyridin-7-ylmethyl)-5-[1-(2-methylpropyl)-1H-pyrazol-4-yl]thiophene-2-carboxamide] are 7.55, 8.95 and 9.77.
On the same counts, the results for `CC(C)C(=O)n1cc(-c2ccc(C(=O)NCc3ccc4nccn4c3)s2)cn1` [Example 175, N-(imidazo[1,2-a]pyridin-6-ylmethyl)-5-[1-(2-methylpropanoyl)-1H-pyrazol-4-yl]thiophene-2-carboxamide] are 6.16, 6.50 and 9.05.
On the same counts, the results for `CC(C)(O)Cn1cc(-c2ccc(C(=O)NCc3ccc4nccn4c3)s2)cn1` [Example 176, 5-[1-(2-hydroxy-2-methylpropyl)-1H-pyrazol-4-yl]-N-(imidazo[1,2-a]pyridin-6-ylmethyl)thiophene-2-carboxamide] are 7.22, 8.74 and 9.38.
Take `CC1(Cn2cc(-c3ccc(C(=O)NCc4ccc5nccn5c4)s3)cn2)COC1` [Example 177, N-(imidazo[1,2-a]pyridin-6-ylmethyl)-5-{1-[(3-methyloxetan-3-yl)methyl]-1H-pyrazol-4-yl}thiophene-2-carboxamide]: the figures for the pIC50 (in assay [1]; with PC3 cells; on NAMPT) were 7.70, 8.77 and 9.77, respectively.
Consider `O=C(NCc1ccc2nccn2c1)c1ccc(-c2cnn(CC3CCC3)c2)s1` [Example 178, 5-[1-(cyclobutylmethyl)-1H-pyrazol-4-yl]-N-(imidazo[1,2-a]pyridin-6-ylmethyl)thiophene-2-carboxamide], for which the values for the pIC50 (in assay [1]; with PC3 cells; at NAMPT) were 7.84, 8.73 and 9.77, respectively.
For `O=C(NCc1ccc2nccn2c1)c1ccc(-c2cnn(CC3CCCCC3)c2)s1` [Example 179, 5-[1-(cyclohexylmethyl)-1H-pyrazol-4-yl]-N-(imidazo[1,2-a]pyridin-6-ylmethyl)thiophene-2-carboxamide] the same measures were 7.24, 8.66 and 9.35.
On the same counts, the results for `CC[C@@H](O)Cn1cc(-c2ccc(C(=O)NCc3ccc4nccn4c3)s2)cn1` [Example 180, 5-{1-[(2R)-2-hydroxybutyl]-1H-pyrazol-4-yl}-N-(imidazo[1,2-a]pyridin-6-ylmethyl)thiophene-2-carboxamide] are 6.23, 8.04 and 9.58.
On the same counts, the results for `CC(C)[C@@H]1COC(=O)N1c1ncc(C(=O)NCc2ccn3ccnc3c2)s1` [Example 181, N-(imidazo[1,2-a]pyridin-7-ylmethyl)-2-[(4R)-2-oxo-4-(propan-2-yl)-1,3-oxazolidin-3-yl]-1,3-thiazole-5-carboxamide] are 6.46, 8.11 and 9.55.
As to `CC(C)(O)Cn1cc(-c2ccc(C(=O)NCc3ccn4ccnc4c3)s2)cn1` [Example 182, 5-[1-(2-hydroxy-2-methylpropyl)-1H-pyrazol-4-yl]-N-(imidazo[1,2-a]pyridin-7-ylmethyl)thiophene-2-carboxamide], the pIC50 is 6.86 in assay [1], 8.86 with PC3 cells and 9.40 on NAMPT.
In the case of `Cn1cc(CC(=O)N(CC2CCCO2)c2ncc(C(=O)NCc3ccc4nccn4c3)s2)cn1` (stereo not drawn) [Example 183, N-(imidazo[1,2-a]pyridin-6-ylmethyl)-2-{[(1-methyl-1H-pyrazol-4-yl)acetyl](tetrahydrofuran-2-ylmethyl)amino}-1,3-thiazole-5-carboxamide], the pIC50 in assay [1] was 5.98; with PC3 cells it was 7.20; on NAMPT it was 8.74.
Take `Cc1nn(C)cc1CC(=O)N(CC1CCCO1)c1ncc(C(=O)NCc2ccc3nccn3c2)s1` (stereo not drawn) [Example 184, 2-{[(1,3-dimethyl-1H-pyrazol-4-yl)acetyl](tetrahydrofuran-2-ylmethyl)amino}-N-(imidazo[1,2-a]pyridin-6-ylmethyl)-1,3-thiazole-5-carboxamide]: the values for the pIC50 (in assay [1]; in the assay with PC3 cells; at NAMPT) were 5.36, 7.19 and 8.60, respectively.
On the same counts, the results for `CC(C)[C@H]1COC(=O)N1c1ncc(C(=O)NCc2ccn3ccnc3c2)s1` [Example 185, N-(imidazo[1,2-a]pyridin-7-ylmethyl)-2-[(4S)-2-oxo-4-(propan-2-yl)-1,3-oxazolidin-3-yl]-1,3-thiazole-5-carboxamide] are below 5.00, 5.30 and 8.73.
On the same counts, the results for `O=C(NCc1ccc2nccn2c1)c1ccc(-c2cnn(CC3CCCCO3)c2)s1` (stereo not drawn) [Example 186, N-(imidazo[1,2-a]pyridin-6-ylmethyl)-5-[1-(tetrahydro-2H-pyran-2-ylmethyl)-1H-pyrazol-4-yl]thiophene-2-carboxamide] are 7.18, 8.63 and 9.46.
On the same counts, the results for `O=C(NCc1ccn2ccnc2c1)c1cnc(N2C(=O)OC[C@H]2COCc2ccccc2)s1` [Example 187, 2-{(4R)-4-[(benzyloxy)methyl]-2-oxo-1,3-oxazolidin-3-yl}-N-(imidazo[1,2-a]pyridin-7-ylmethyl)-1,3-thiazole-5-carboxamide] are 6.26, 7.47 and 9.76.
`O=C(NCc1ccn2ccnc2c1)c1cnc(N2C(=O)OC[C@@H]2COCc2ccccc2)s1` [Example 188, 2-{(4S)-4-[(benzyloxy)methyl]-2-oxo-1,3-oxazolidin-3-yl}-N-(imidazo[1,2-a]pyridin-7-ylmethyl)-1,3-thiazole-5-carboxamide]: the pIC50 in assay [1] is below 5.00; in the assay with PC3 cells, 5.20; on NAMPT, 8.29.
